Laboratory results: PubChem BioAssay (NCI)
Several values for one entry are separate records, joined by “and”; a condition that tells them apart may be missing. Equal entries are not always repeated.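 Growth conditions: 96-well plates. Treatment: test compound, 48 hours, 5 concentrations. Analysis: linear interpolation between bracketing concentrations; unreached endpoints set to highest concentration. Abbreviation: GI50, concentration required for 50% inhibition of growth. TGI is the concentration that stops growth completely.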

test system: MDA-MB-468 breast; experiment: NCI-60 cell line screen, 48 h

Row | Structure (SMILES) | GI50 | TGI
1 | Nc1nc(N)c2c(n1)NC(c1ccc(Cl)cc1)C1CCc3ccccc3C1=N2 (configuration not stated) | 1.6 µM | 14.5 µM
2 | COc1cc(/C=C/[N+](=O)[O-])cc(OC)c1 | 1.64 µM | 3.53 µM
3 | O=[N+]([O-])c1ccc(NC(c2ccccc2)c2ccc3cccnc3c2O)cc1 (configuration not stated) | 0.363 µM | 2.05 µM
4 | Cn1cc(-c2nc(-c3c[nH]c4ccccc34)cs2)c2cccnc21 | 0.252 µM | 0.827 µM
5 | COc1ccc(COc2ccc(Cc3cnc(N)nc3N)cc2OC)cc1 | 3.27 µM | 19.6 µM
6 | O=C(COc1ccc(Cl)cc1Cl)NNc1ccc([N+](=O)[O-])cc1 | 37.5 µM | > 100 µM
7 | C=C1C(=O)O[C@H]2[C@H]1CC/C(COC(=O)NCCc1ccc(Br)cc1)=C\CC[C@@]1(C)O[C@@H]21 | 0.841 µM | 2.47 µM
8 | O=C(/C=C/c1cc2ccccc2[nH]c1=O)c1ccc(O)cc1 | 2.12 µM | 5.3 µM
9 | COc1cc2cc(C(=O)Nc3ccccc3)c(N)nc2cc1OC | 21.9 µM | > 100 µM
10 | COc1ccc(CNCCN2C(=O)c3ccc4c5c(ccc(c35)C2=O)C(=O)N(CCNCc2ccc(OC)c(OC)c2OC)C4=O)c(OC)c1OC | 0.0822 µM | 0.164 µM
11 | COc1cc(N2CCN(C(C)C)CC2)ccc1Nc1nc(Nc2ccc(F)cc2C(N)=O)c2cc[nH]c2n1 | 0.999 µM | 5.49 µM
12 | Cc1cc(C(=O)NOCCO)c(Nc2ccc(I)cc2F)n(C)c1=O | > 10 µM and 68.2 µM | > 100 µM
13 | CC1(/C=C/c2ccc(-c3ccccc3)cc2)CCn2cnc3ncnc(c32)N1O (configuration not stated) | 0.276 µM | 0.872 µM
14 | Cc1c(-c2c(F)cc(C(N)=O)c3[nH]c4c(c23)CC[C@H](C(C)(C)O)C4)cccc1-n1c(=O)c2cccc(F)c2n(C)c1=O | 3.06 µM | > 100 µM
15 | O=c1[nH]c(=O)n(C2C[C@@H](O)[C@@H](CO)O2)cc1F (some centres not stated) | 0.0444 µM | 36.3 µM
16 | Cn1cc(-c2[nH]c3cc(NC(=O)[C@H](N)C4CCCCC4)cc4c3c2C=NNC4=O)cn1 | 0.164 µM and 0.503 µM | 0.827 µM and > 5.3 µM
17 | Nc1cc2c3ccccc3ccc2c2ccccc12 | > 100 µM | > 100 µM
18 | CNC(=O)c1cc(Oc2ccc(NC(=O)Nc3ccc(Cl)c(C(F)(F)F)c3)cc2)ccn1 | 1.42 µM and 2.03 µM and 2.09 µM | 7.91 µM and 8.05 µM and 7.7 µM
19 | Cc1ccccc1N=C(c1ccccc1)C1C(=O)c2ccccc2C1=O | 6.22 µM | > 100 µM
20 | COc1ccc(N2CCN(c3nc(-c4ccccn4)nc4sc5c(c34)CCCCCC5)CC2)cc1 | 4.11 µM | > 100 µM
21 | COc1cccc(/C=C/C(=O)c2cc3c(N)c(C(=O)Nc4ccccc4)sc3nc2C)c1 | 0.906 µM | 1.84 µM

Row | Structure (SMILES) | GI50 | TGI
22 | CCCCCCCN(CCCCCCC)C(=N)c1ccc(OC)c2ccccc12 | 1.23 µM | 2.81 µM
23 | COC1C[C@H](O[C@@H]2C[C@H](O[C@@H]3C[C@H](O[C@@H]4C(=O)c5c(cc6cc(O[C@H]7C[C@@H](O[C@H]8C[C@@H](O)[C@H](O)C(C)O8)[C@H](O)C(C)O7)c(C)c(O)c6c5O)C[C@H]4C(OC)C(=O)[C@@H](O)[C@@H](C)O)OC(C)[C@H]3O)OC(C)[C@@H]2O)OC(C)[C@@H]1O (some centres not stated) | 0.109 µM | 0.723 µM
24 | c1ccc(OCC[P+](c2ccccc2)(c2ccccc2)c2ccccc2)cc1 | 0.152 µM | 0.736 µM
25 | CC(=O)OCc1cc[c]([Hg][Cl])o1 | 1.5 µM | 3.44 µM
26 | O=C(Nc1cccc(Cl)c1)Nc1cc(C(F)(F)F)ccc1Cl | 1.99 µM | 4.73 µM
27 | Clc1ccc(Nc2nnc(COc3ccccc3)c3ccccc23)cc1 | 1.49 µM | 7.62 µM
28 | CCN1C(=O)N(CC)C2C1NN=c1s/c(=C\c3ccc(Br)cc3)c(=O)n12 (configuration not stated) | 0.0697 µM | 0.516 µM
29 | C[C@H]1O[C@@H](O[C@H]2[C@@H](O)C[C@H](O[C@H]3[C@@H](O)C[C@H](O[C@H]4CC[C@]5(C)C6CC[C@]7(C)[C@@H](C8=CC(=O)OC8)CC[C@]7(O)C6CC[C@@H]5C4)O[C@@H]3C)O[C@@H]2C)C[C@H](O)[C@@H]1O (some centres not stated) | 0.0667 µM | 0.202 µM
30 | CN1CCN(CCCn2c3c(sc4ncccc43)c(=O)n3nnc(-c4ccccc4)c23)CC1 | 1.72 µM | 3.25 µM
31 | Cc1cccc(Nc2ncc(-c3ccccc3)o2)c1 | 7.05 µM | > 25 µM
32 | c1ccc2c(c1)CCCc1nnc3nc4ccccc4n3c1-2 | 6.55 µM | 74.7 µM
33 | Fc1ccc(Nc2ccnc(N3CCN(c4ccnc5cc(Cl)ccc45)CC3)n2)cc1 | 2.41 µM | 19.3 µM
34 | O=C(Nc1n[nH]c2cc(-c3ccc(F)cc3)ccc12)C1CC1 | 3.42 µM | > 16.2 µM
35 | O=C1NC(=O)/C(=C/c2ccc3nccc(-c4ccncc4)c3c2)S1 | 0.185 µM | 1.17 µM
36 | C#Cc1cccc(NC(=O)C2CCCCN2C(=O)CCl)c1 (configuration not stated) | 11.2 µM | 34.1 µM
37 | COc1ccc(C2CC(=O)Nc3c2c(C)nn3-c2nc3ccccc3[nH]2)cc1OC (configuration not stated) | 3.09 µM | 16.8 µM
38 | O=C(Nc1ccc([N+](=O)[O-])cc1Cl)c1cc(Cl)ccc1O | 0.121 µM and 0.26 µM | 0.388 µM and 0.782 µM
39 | CS(=O)(=O)Nc1cc(-c2ccc3ncnc(Nc4ccc(OCc5ccccn5)c(Cl)c4)c3c2)cnc1Cl | 0.156 µM | 0.78 µM
40 | O=C(Nc1c(Cl)cccc1Cl)Oc1cccc2cccnc12 | 2.91 µM | 13.9 µM
41 | COc1cc2cc(Oc3ccc(NC(=O)c4cccc(C(F)(F)F)c4)cc3)c(C)nc2cc1OCCN1CCCCC1 | 14.1 µM | 29.1 µM
